Tested on: 435261-313-R-J1-PDC complex spheroid viability
Experiment: Anticancer human tumor 435261-313-R-J1-PDC patient-derived colon adenocarcinoma cell line growth inhibition [GQUAD]
Settings: for IC50: curve of first compound; for viability, T/C: stronger effect = lower value
Summary of the method: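 Tumor cells were grown as complex spheroids with HUVEC endothelial cells and mesenchymal stem cells as stroma. G-quadruplex stabilizers were combined with targeted agents over half-log dilutions from near the clinical Cmax, or from 10 microM.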

[1] = second compound 0.0316 µM, first compound 0.0316 µM
[2] = second compound 0.0316 µM, first compound 0.1 µM
[3] = second compound 0.0316 µM, first compound 0.316 µM
[4] = second compound 0.0316 µM, first compound 1 µM
[5] = second compound 0.0316 µM, first compound 3.16 µM
[6] = second compound 0.0316 µM, first compound 10 µM
[7] = second compound 0.1 µM, first compound 0.0316 µM
[8] = second compound 0.1 µM, first compound 0.1 µM
[9] = second compound 0.1 µM, first compound 0.316 µM
[10] = second compound 0.1 µM, first compound 1 µM
[11] = second compound 0.1 µM, first compound 3.16 µM
[12] = second compound 0.1 µM, first compound 10 µM
[13] = second compound 0.316 µM, first compound 0.0316 µM
[14] = second compound 0.316 µM, first compound 0.1 µM
[15] = second compound 0.316 µM, first compound 0.316 µM
[16] = second compound 0.316 µM, first compound 1 µM
[17] = second compound 0.316 µM, first compound 3.16 µM
[18] = second compound 0.316 µM, first compound 10 µM
[19] = second compound 1 µM, first compound 0.0316 µM
[20] = second compound 1 µM, first compound 0.1 µM
[21] = second compound 1 µM, first compound 0.316 µM
[22] = second compound 1 µM, first compound 1 µM
[23] = second compound 1 µM, first compound 3.16 µM
[24] = second compound 1 µM, first compound 10 µM
[25] = second compound 3.16 µM, first compound 0.0316 µM
[26] = second compound 3.16 µM, first compound 0.1 µM
[27] = second compound 3.16 µM, first compound 0.316 µM
[28] = second compound 3.16 µM, first compound 1 µM
[29] = second compound 3.16 µM, first compound 3.16 µM
[30] = second compound 3.16 µM, first compound 10 µM
[31] = second compound 10 µM, first compound 0.0316 µM
[32] = second compound 10 µM, first compound 0.1 µM
[33] = second compound 10 µM, first compound 0.316 µM
[34] = second compound 10 µM, first compound 1 µM
[35] = second compound 10 µM, first compound 3.16 µM
[36] = second compound 10 µM, first compound 10 µM
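Further: spheroids exposed to the agents for seven days before readout.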
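Wherever viability, T/C is given: percent of vehicle control viability with DMSO wells as 100%.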

Compound CC1COCCN1c1cc(C2(O)CC3CCC(C2)O3)c2cnn(-c3ccn[nH]3)c2n1 (stereo not drawn) + CN(C)c1ccc(Nc2c3ccc(NC(=O)CCN4CCCC4)cc3nc3cc(NC(=O)CCN4CCCC4)ccc23)cc1 has an IC50 (second compound 0.0316 µM) of 193 nM, an IC50 (second compound 0.1 µM) of 316 nM and an IC50 (second compound 0.316 µM) of 225 nM. The IC50 (second compound 1 µM) was 257 nM, the IC50 (second compound 3.16 µM) was under 31.6 nM and the IC50 (second compound 10 µM) was under 31.6 nM. It also gave a viability, T/C [1] of 63%, a viability, T/C [2] of 58.1% and a viability, T/C [3] of 45.1%. The viability, T/C [4] was 27.4%, the viability, T/C [5] was 23.2% and the viability, T/C [6] was 12%. It also gave a viability, T/C [7] of 71.3%, a viability, T/C [8] of 82.8% and a viability, T/C [9] of 47.3%. The viability, T/C [10] was 26.8%, the viability, T/C [11] was 21.1% and the viability, T/C [12] was 10.8%. It also gave a viability, T/C [13] of 75.1%, a viability, T/C [14] of 61.7% and a viability, T/C [15] of 45.7%. It also gave a viability, T/C [16] of 28.9%, a viability, T/C [17] of 25% and a viability, T/C [18] of 11.6%. It also gave a viability, T/C [19] of 82.7%, a viability, T/C [20] of 64.5% and a viability, T/C [21] of 48%. For the same compound, the viability, T/C [22] was 28.3%, the viability, T/C [23] was 21.1% and the viability, T/C [24] was 7.4%. It also gave a viability, T/C [25] of 48.6%, a viability, T/C [26] of 44.3% and a viability, T/C [27] of 31.9%. For the same compound, the viability, T/C [28] was 13.3%, the viability, T/C [29] was 9.48% and the viability, T/C [30] was 3.11%. The viability, T/C [31] was 26.9%, the viability, T/C [32] was 18.5% and the viability, T/C [33] was 17%. The viability, T/C [34] was 7.23%, the viability, T/C [35] was 3.13% and the viability, T/C [36] was 1.2%.

Compound Nc1ccn(C2OC(CO)C(O)C2(F)F)c(=O)n1 (stereo not drawn) + Cc1cnc(CNC(=O)c2c(=O)c3ccc(N4CCCN(C)CC4)nc3n3c2sc2ccccc23)cn1 has an IC50 (second compound 0.0316 µM) of over 10000 nM, an IC50 (second compound 0.1 µM) of over 10000 nM and an IC50 (second compound 0.316 µM) of 4260 nM. For the same compound, the IC50 (second compound 1 µM) was under 31.6 nM, the IC50 (second compound 3.16 µM) was under 31.6 nM and the IC50 (second compound 10 µM) was under 31.6 nM. It also gave a viability, T/C [1] of 85.8%, a viability, T/C [2] of 63.4% and a viability, T/C [3] of 64.2%. It also gave a viability, T/C [4] of 59.8%, a viability, T/C [5] of 73.4% and a viability, T/C [6] of 59.3%. The viability, T/C [7] was 62.5%, the viability, T/C [8] was 67.5% and the viability, T/C [9] was 58.2%. For the same compound, the viability, T/C [10] was 79.8%, the viability, T/C [11] was 61.6% and the viability, T/C [12] was 59.9%. It also gave a viability, T/C [13] of 64.5%, a viability, T/C [14] of 59.7% and a viability, T/C [15] of 56.3%. It also gave a viability, T/C [16] of 56.7%, a viability, T/C [17] of 54.4% and a viability, T/C [18] of 43.6%. For the same compound, the viability, T/C [19] was 51.5%, the viability, T/C [20] was 46.9% and the viability, T/C [21] was 47.8%. The viability, T/C [22] was 52.1%, the viability, T/C [23] was 47% and the viability, T/C [24] was 28%. For the same compound, the viability, T/C [25] was 23.3%, the viability, T/C [26] was 26.2% and the viability, T/C [27] was 21.9%. The viability, T/C [28] was 6.98%, the viability, T/C [29] was 14% and the viability, T/C [30] was 0.27%. For the same compound, the viability, T/C [31] was 0.21%, the viability, T/C [32] was 0.2% and the viability, T/C [33] was 0.17%. For the same compound, the viability, T/C [34] was 0.31%, the viability, T/C [35] was 0.2% and the viability, T/C [36] was 0.21%.

For C=CC(=O)N1CCN(c2nc(=O)n(-c3c(C)ccnc3C(C)C)c3nc(-c4c(O)cccc4F)c(F)cc23)C(C)C1 (stereo not drawn) + CN(C)c1ccc(Nc2c3ccc(NC(=O)CCN4CCCC4)cc3nc3cc(NC(=O)CCN4CCCC4)ccc23)cc1, the IC50 (second compound 0.0316 µM) was over 10000 nM, the IC50 (second compound 0.1 µM) was over 10000 nM and the IC50 (second compound 0.316 µM) was over 10000 nM. For the same compound, the IC50 (second compound 1 µM) was over 10000 nM, the IC50 (second compound 3.16 µM) was over 10000 nM and the IC50 (second compound 10 µM) was under 31.6 nM. It also gave a viability, T/C [1] of 98.5%, a viability, T/C [2] of 146% and a viability, T/C [3] of 119%. It also gave a viability, T/C [4] of 97.6%, a viability, T/C [5] of 100% and a viability, T/C [6] of 105%. It also gave a viability, T/C [7] of 111%, a viability, T/C [8] of 109% and a viability, T/C [9] of 111%. It also gave a viability, T/C [10] of 138%, a viability, T/C [11] of 115% and a viability, T/C [12] of 173%. It also gave a viability, T/C [13] of 159%, a viability, T/C [14] of 106% and a viability, T/C [15] of 123%. The viability, T/C [16] was 120%, the viability, T/C [17] was 111% and the viability, T/C [18] was 103%. It also gave a viability, T/C [19] of 122%, a viability, T/C [20] of 101% and a viability, T/C [21] of 149%. For the same compound, the viability, T/C [22] was 99.8%, the viability, T/C [23] was 145% and the viability, T/C [24] was 109%. The viability, T/C [25] was 69.4%, the viability, T/C [26] was 98.3% and the viability, T/C [27] was 114%. For the same compound, the viability, T/C [28] was 113%, the viability, T/C [29] was 102% and the viability, T/C [30] was 87.1%. The viability, T/C [31] was 30.8%, the viability, T/C [32] was 45.6% and the viability, T/C [33] was 54%. It also gave a viability, T/C [34] of 71.5%, a viability, T/C [35] of 70.9% and a viability, T/C [36] of 30.2%.

Compound COc1cc(C2c3cc4c(cc3C(OC3OC5COC(C)OC5C(O)C3O)C3COC(=O)C23)OCO4)cc(OC)c1O (stereo not drawn) + CN(C)c1ccc(Nc2c3ccc(NC(=O)CCN4CCCC4)cc3nc3cc(NC(=O)CCN4CCCC4)ccc23)cc1 has an IC50 (second compound 0.0316 µM) of over 10000 nM, an IC50 (second compound 0.1 µM) of over 10000 nM and an IC50 (second compound 0.316 µM) of over 10000 nM. It also gave an IC50 (second compound 1 µM) of over 10000 nM, an IC50 (second compound 3.16 µM) of over 10000 nM and an IC50 (second compound 10 µM) of 70.4 nM. It also gave a viability, T/C [1] of 93.5%, a viability, T/C [2] of 117% and a viability, T/C [3] of 77.8%. The viability, T/C [4] was 74.4%, the viability, T/C [5] was 75.9% and the viability, T/C [6] was 61.2%. It also gave a viability, T/C [7] of 81.8%, a viability, T/C [8] of 87.3% and a viability, T/C [9] of 74.8%. For the same compound, the viability, T/C [10] was 80.7%, the viability, T/C [11] was 82.1% and the viability, T/C [12] was 74.1%. For the same compound, the viability, T/C [13] was 100%, the viability, T/C [14] was 95.2% and the viability, T/C [15] was 65.1%. For the same compound, the viability, T/C [16] was 71%, the viability, T/C [17] was 91.6% and the viability, T/C [18] was 74.4%. For the same compound, the viability, T/C [19] was 78.9%, the viability, T/C [20] was 91.4% and the viability, T/C [21] was 74.3%. It also gave a viability, T/C [22] of 76.4%, a viability, T/C [23] of 71.1% and a viability, T/C [24] of 57.1%. The viability, T/C [25] was 62.6%, the viability, T/C [26] was 69.2% and the viability, T/C [27] was 65.5%. For the same compound, the viability, T/C [28] was 55.2%, the viability, T/C [29] was 62.4% and the viability, T/C [30] was 45.7%. It also gave a viability, T/C [31] of 63%, a viability, T/C [32] of 42.4% and a viability, T/C [33] of 37.9%. For the same compound, the viability, T/C [34] was 29%, the viability, T/C [35] was 27.1% and the viability, T/C [36] was 26.4%.

Reference: PubChem BioAssay AID2060494 (Molecular Pharmacology Branch, DTP, NCI, 2025)
